Results as given in patent publication US20130005696A1, “BUFADIENOLIDE DERIVATIVES, PREPARING PROCESS THEREOF, COMPOSITION COMPRISING THE SAME AND THE USE THEREOF” (priority 2011, published 2013).

Test system: human-derived breast carcinoma MDA-MB-231 xenograft
Assay: Therapeutic effect against MDA-MB-231 xenograft in nude mice
Format: in vivo, Balb/c nude mice
Conditions: QOD × 7 d
Protocol: This experiment is to investigate the in vivo inhibitory effect of II1E-01.HCl on growth of human-derived hepatic carcinoma HepG2 cell, human-derived breast carcinoma MDA-MB-231 cell, human-derived lung carcinoma H460 cell, human-derived colon carcinoma HCT-116 cell, human-derived […] MV-4-11 cell xenografts in nude mice.
Formulation of solvent control (5% anhydrous ethanol & 5% aqueous glucose solution): 2.5 mL anhydrous ethanol was added into a 50 mL tube, followed by addition of 47.5 mL 5% glucose solution for injection followed by shaking, and stored at room temperature before use.
Formulation of the preparations of the compounds to be tested: formulations with concentrations of 0.4 mg/mL and 0.6 mg/mL were prepared respectively. An appropriate amount of II1E-01.HCl was weighted and put into a 50 mL tube, followed by addition of corresponding volume of solvent to get the desired concentration and mixed using a vortex mixer. After the solid was dissolved completely, the solution was subpackaged into 4 mL vials and stored at refrigerated condition (2-8° C.) until use.
Experimental animals: Balb/c nude mice (male, six weeks old).
19 days after MDA-MB-231 cells were implanted, the tumor size reached about 617 mm^3. The mice bearing the tumor were grouped and administered. The groups of II1E-01.HCl were administered once every other day (QOD), and the solvent control group was administered with the solvent control solution. After completion of the experiment, the tumor weight and the inhibition rate were calculated, and the results are summarized in Table 6. The high and middle dosage groups have significant inhibitory activities against the growth of MDA-MB-231 xenograft, and the effect depends on the amount obviously.
The tumor in this experiment had been allowed to grow to reach a relative bigger size before drug administration (the tumor size before drug administration was about 600 mm^3 while generally the tumor size was only 200-300 mm^3 before drug administration), which corresponds to a middle- or advanced-stage cancer.

C[C@]12CC[C@H](OC(=O)NC3CCNCC3)C[C@H]1CC[C@@H]1[C@@H]2CC[C@]2(C)[C@@H](c3ccc(=O)oc3)CC[C@]12O.Cl [II1E-01•HCl]
Inhibition Rate (%) (2 mg/kg iv): 16.36% | Tumor Weight(g) Mean ± SE (2 mg/kg iv): 2.6063 ± 0.2731 g | Inhibition Rate (%) (4 mg/kg iv): 33.99% | Tumor Weight(g) Mean ± SE (4 mg/kg iv): 2.0569 ± 0.1340 g | Inhibition Rate (%) (6 mg/kg iv): 52.23% | Tumor Weight(g) Mean ± SE (6 mg/kg iv): 1.4887 ± 0.1763 g
